# Laboratory results as given in US7507727B2, “Substituted quinobenzoxazine analogs and methods of using thereof” (Cylene Pharmaceuticals, Inc., priority 2003, dated 2009).
# pIC50: −log10 of the molar value.
# Target: c-Myc template DNA (c-myc quadruplex)
# Assay: Quadruplex binding / stop assay (Taq polymerase arrest, capillary electrophoresis)
# Details: read-out: S DATA; Table 1D, stop assay data
row,pIC50,Structure (SMILES)
1,5.71,CN1CCCC1CCNC(=O)c1cn2c3c(c(NC4CCS(=O)(=O)C4)c(F)cc3c1=O)Oc1cc3ccccc3cc1-2 (stereo not shown) [compound 1749]
2,< 4.82,CN(C)CC(C)(C)CNC(=O)c1cn2c3c(c(NCCCN4CCN(C)CC4)c(F)cc3c1=O)Oc1ccccc1-2 [compound 1580]
3,< 4.82,CN1CCCC1CCNC(=O)c1cn2c3c(c(N(C)C4CCCCNC4)c(F)cc3c1=O)Oc1cc3ccccc3cc1-2 (stereo not shown) [compound 1510]
4,< 4.82,CCOCCCNC(=O)c1cn2c3c(c(N4CCC(N)C4)c(F)cc3c1=O)Oc1cc3ccccc3cc1-2 (stereo not shown) [compound 1697]
5,< 4.82,CN1CCCC1CCNC(=O)c1cn2c3c(c(NC(=O)C4CNCCN4)c(F)cc3c1=O)Oc1cc3ccccc3cc1-2 (stereo not shown) [compound 1505]
6,< 4.82,O=C(NCCN1CCCC1)c1cn2c3c(c(SCCc4cnccn4)c(F)cc3c1=O)Oc1cccnc1-2 [compound 1786]
7,5.00,O=C(NCCN1CCCC1)c1cn2c3c(c(N4CCN(Cc5ccc[nH]5)CC4)c(F)cc3c1=O)Oc1cc(Cl)ccc1-2 [compound 1833]

# Same assay, conditions: read-out: Stop Data c-Myc μM; concentration at which 50% of the DNA was arrested (arrested:full-length 1:1)
row,Structure (SMILES),IC50 [µM]
1,CN1CCCC1CCNc1c(F)cc2c(=O)c(C(=O)N3CC[C@@H](NC(=O)OC(C)(C)C)C3)cn3c2c1Oc1cc2ccccc2cc1-3 (stereo partly shown) [compound 68],2.5
2,CN1CCCC1CCNc1c(F)cc2c(=O)c(C(=O)NCCN3CCOCC3)cn3c2c1Oc1c-3ccc2ccccc12 (stereo not shown) [compound 134],1.75
3,COc1cccc(CCNc2c(F)cc3c(=O)c(C(=O)NCCC4CCCN4C)cn4c3c2Oc2cc3ccccc3cc2-4)c1 (stereo not shown) [compound 289],1.75
4,CCOC(=O)N1CCC(Nc2c(F)cc3c(=O)c(C(=O)NCCC4CCCN4C)cn4c3c2Oc2cc3ccccc3cc2-4)CC1 (stereo not shown) [compound 256],1.75
5,CN(C)CCCCNc1c(F)cc2c(=O)c(C(=O)NCCN3CCOCC3)cn3c2c1Oc1cc2c(cc1-3)oc1ccccc12 [compound 163],1.75
6,CN1CCCC1CCNC(=O)c1cn2c3c(c(N4CC[C@@H](NC(=O)OC(C)(C)C)C4)c(F)cc3c1=O)Oc1c-2ccc2ccccc12 (stereo partly shown) [compound 132],1.75
7,O=C(c1cn2c3c(c(NCCN4CCCC4)c(F)cc3c1=O)Oc1cc3ccccc3cc1-2)N1CCOCC1 [compound 43],2.5
8,CN1CCCC1CCNC(=O)c1cn2c3c(c(N4CCC(NC(=O)OC(C)(C)C)C4)c(F)cc3c1=O)Oc1cc3ccccc3cc1-2 (stereo not shown) [compound 213],1.75

# Second part, the compound after the results:
row,IC50 [µM],Structure (SMILES)
1,1.75,CN(C)CCCCNCCC(=O)N[C@@H]1CCN(c2c(F)cc3c(=O)c(C(=O)N4CCOCC4)cn4c3c2Oc2cc3c(cc2-4)oc2ccccc23)C1 [compound 177]
2,1.75,O=C(O)c1cn2c3c(c(NCCCN4CCOCC4)c(F)cc3c1=O)Oc1cc3c(O)ncnc3cc1-2 [compound 12]
3,1.75,CN1CCN(CCCNc2c(F)cc3c(=O)c(C(=O)NCCN4CCCC4)cn4c3c2Oc2cc3c(cc2-4)oc2ccccc23)CC1 [compound 152]
4,1.75,O=C(NCCCN1CCOCC1)c1cn2c3c(c(NCCN4CCCC4)c(F)cc3c1=O)Oc1cc3c(cc1-2)oc1ccccc13 [compound 160]
5,1.75,Nc1c(F)c(N2CCC(N)C2)c2c3c1c(=O)c(C(=O)NCCCN1CCOCC1)cn3-c1cc3ccccc3cc1O2 (stereo not shown) [compound 235]
6,1.75,CC1(C)CC(NC(=O)c2cn3c4c(c(N5CCC(NC(=O)OC(C)(C)C)C5)c(F)cc4c2=O)Oc2cc4ccccc4cc2-3)CC(C)(C)N1 (stereo not shown) [compound 182]
7,1,CC1CCCC(C)N1CCCNC(=O)c1cn2c3c(c(N4CCC(N)C4)c(F)cc3c1=O)Oc1cc3ccccc3cc1-2 (stereo not shown) [compound 337]
8,0.75,NC1CCN(c2ccc3c(=O)c(C(=O)NCCCN4CCOCC4)cn4c3c2Oc2cc3ccccc3cc2-4)C1 (stereo not shown) [compound 457]
9,0.375,NC1CCN(c2c(F)cc3c(=O)c(C(=O)NCCCN4CCOCC4)cn4c5cc6c(=O)c7ccccc7c(=O)c6cc5oc2c34)C1 (stereo not shown) [compound 551]
10,0.75,CN1CCCC1CCNC(=O)c1cn2c3cc4oc5cc([N+](=O)[O-])ccc5[nH]c4cc3oc3c(NCCN4CCOCC4)c(F)cc(c1=O)c32 (stereo not shown) [compound 407]
